Test results taken from ChEMBL document CHEMBL3991601, “The target landscape of clinical kinase drugs” (Science, 2017).
The source made the active and inactive calls. For most assays here, no stated cut-off is given here; in the data, actives have a measured Kd and inactives only a lower limit.

biological target: T1, Activin receptor type-1B (Homo sapiens, UniProt P36896)
T1 sequence (P36896 whole entry): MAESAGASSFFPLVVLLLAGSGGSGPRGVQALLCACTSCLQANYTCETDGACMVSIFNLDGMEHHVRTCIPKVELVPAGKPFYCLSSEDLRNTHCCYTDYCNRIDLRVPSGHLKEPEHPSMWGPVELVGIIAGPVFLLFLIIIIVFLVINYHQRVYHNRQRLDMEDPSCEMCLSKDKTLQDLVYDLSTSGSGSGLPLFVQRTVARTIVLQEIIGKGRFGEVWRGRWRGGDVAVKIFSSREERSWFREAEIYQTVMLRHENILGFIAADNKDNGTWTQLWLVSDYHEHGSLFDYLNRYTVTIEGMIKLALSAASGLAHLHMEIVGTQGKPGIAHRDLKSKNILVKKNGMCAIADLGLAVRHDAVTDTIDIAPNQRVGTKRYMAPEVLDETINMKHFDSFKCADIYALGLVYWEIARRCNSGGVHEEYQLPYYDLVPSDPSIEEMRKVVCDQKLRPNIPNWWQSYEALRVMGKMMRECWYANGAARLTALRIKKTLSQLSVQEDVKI

SMILES	Kd
CN1CCC(CNc2ccc3ncc(-c4cccc(OC(F)(F)F)c4)n3n2)CC1 [SGI-1776]	> 30 µM (inactive)
O=C(Nc1cccc(Cl)c1)Nc1ncc(CCNc2ncnc3ccsc23)s1 [SNS-314]	> 30 µM (inactive)
COc1cc2nccc(Oc3ccc(NC(=O)Nc4cc(C)on4)c(Cl)c3)c2cc1OC [TIVOZANIB]	> 30 µM (inactive)
CC(=O)Nc1cccc(-n2c(=O)n(C3CC3)c(=O)c3c(Nc4ccc(I)cc4F)n(C)c(=O)c(C)c32)c1 [TRAMETINIB]	> 30 µM (inactive)
CN1N=C(N)c2cn([C@@H]3O[C@H](COP(=O)(O)O)[C@@H](O)[C@H]3O)c3ncnc1c23 [TRICIRIBINE PHOSPHATE]	> 30 µM (inactive)

biological target: Serine/threonine-protein kinase MRCK alpha (Homo sapiens, UniProt Q5VT25)

SMILES	Kd
COc1cc2nccc(Oc3ccc(NC(=O)Nc4cc(C)on4)c(Cl)c3)c2cc1OC [TIVOZANIB]	> 30 µM (inactive)
CC(=O)Nc1cccc(-n2c(=O)n(C3CC3)c(=O)c3c(Nc4ccc(I)cc4F)n(C)c(=O)c(C)c32)c1 [TRAMETINIB]	> 30 µM (inactive)

biological target: Casein kinase I isoform epsilon (Homo sapiens, UniProt P49674)
Sequence (P49674 whole entry, canonical isoform): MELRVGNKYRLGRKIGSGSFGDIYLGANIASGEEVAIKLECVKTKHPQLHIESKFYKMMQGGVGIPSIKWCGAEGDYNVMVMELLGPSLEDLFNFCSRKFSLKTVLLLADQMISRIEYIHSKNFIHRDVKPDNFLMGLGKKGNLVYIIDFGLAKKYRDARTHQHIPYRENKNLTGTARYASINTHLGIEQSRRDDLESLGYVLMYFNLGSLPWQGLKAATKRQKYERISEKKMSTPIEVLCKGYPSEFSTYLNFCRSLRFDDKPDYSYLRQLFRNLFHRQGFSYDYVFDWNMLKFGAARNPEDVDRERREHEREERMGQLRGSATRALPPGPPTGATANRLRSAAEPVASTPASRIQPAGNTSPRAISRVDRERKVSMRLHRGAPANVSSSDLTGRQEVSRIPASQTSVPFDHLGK

SMILES	Kd
CN1CCC(CNc2ccc3ncc(-c4cccc(OC(F)(F)F)c4)n3n2)CC1 [SGI-1776]	> 30 µM (inactive)
O=C(Nc1cccc(Cl)c1)Nc1ncc(CCNc2ncnc3ccsc23)s1 [SNS-314]	> 30 µM (inactive)
CC(=O)Nc1cccc(-n2c(=O)n(C3CC3)c(=O)c3c(Nc4ccc(I)cc4F)n(C)c(=O)c(C)c32)c1 [TRAMETINIB]	> 30 µM (inactive)
CN1N=C(N)c2cn([C@@H]3O[C@H](COP(=O)(O)O)[C@@H](O)[C@H]3O)c3ncnc1c23 [TRICIRIBINE PHOSPHATE]	> 30 µM (inactive)

biological target: Eukaryotic translation initiation factor 2-alpha kinase 1 (Homo sapiens, UniProt Q9BQI3)
Sequence (Q9BQI3 whole entry): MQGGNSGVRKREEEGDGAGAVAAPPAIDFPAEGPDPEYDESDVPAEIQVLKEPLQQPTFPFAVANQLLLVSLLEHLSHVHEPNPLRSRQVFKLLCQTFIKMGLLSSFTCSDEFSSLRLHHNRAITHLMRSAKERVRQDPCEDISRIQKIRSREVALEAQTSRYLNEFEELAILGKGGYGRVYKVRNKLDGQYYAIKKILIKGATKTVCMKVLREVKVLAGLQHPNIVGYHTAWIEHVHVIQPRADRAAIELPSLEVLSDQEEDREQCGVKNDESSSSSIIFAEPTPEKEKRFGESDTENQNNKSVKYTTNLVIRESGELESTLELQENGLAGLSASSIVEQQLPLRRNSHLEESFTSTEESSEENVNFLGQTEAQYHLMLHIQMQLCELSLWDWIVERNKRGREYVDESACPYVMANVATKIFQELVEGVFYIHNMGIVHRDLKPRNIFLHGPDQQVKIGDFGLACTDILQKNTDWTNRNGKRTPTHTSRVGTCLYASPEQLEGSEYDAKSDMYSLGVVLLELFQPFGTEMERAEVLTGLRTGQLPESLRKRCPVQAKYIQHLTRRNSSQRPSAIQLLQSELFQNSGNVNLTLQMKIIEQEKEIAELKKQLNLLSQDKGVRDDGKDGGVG

SMILES	Kd
CN1CCC(CNc2ccc3ncc(-c4cccc(OC(F)(F)F)c4)n3n2)CC1 [SGI-1776]	> 30 µM (inactive)
O=C(Nc1cccc(Cl)c1)Nc1ncc(CCNc2ncnc3ccsc23)s1 [SNS-314]	> 30 µM (inactive)
COc1cc2nccc(Oc3ccc(NC(=O)Nc4cc(C)on4)c(Cl)c3)c2cc1OC [TIVOZANIB]	> 30 µM (inactive)
CC(=O)Nc1cccc(-n2c(=O)n(C3CC3)c(=O)c3c(Nc4ccc(I)cc4F)n(C)c(=O)c(C)c32)c1 [TRAMETINIB]	> 30 µM (inactive)

biological target: Tyrosine-protein kinase FRK (Homo sapiens, UniProt P42685)
Sequence (P42685 whole entry): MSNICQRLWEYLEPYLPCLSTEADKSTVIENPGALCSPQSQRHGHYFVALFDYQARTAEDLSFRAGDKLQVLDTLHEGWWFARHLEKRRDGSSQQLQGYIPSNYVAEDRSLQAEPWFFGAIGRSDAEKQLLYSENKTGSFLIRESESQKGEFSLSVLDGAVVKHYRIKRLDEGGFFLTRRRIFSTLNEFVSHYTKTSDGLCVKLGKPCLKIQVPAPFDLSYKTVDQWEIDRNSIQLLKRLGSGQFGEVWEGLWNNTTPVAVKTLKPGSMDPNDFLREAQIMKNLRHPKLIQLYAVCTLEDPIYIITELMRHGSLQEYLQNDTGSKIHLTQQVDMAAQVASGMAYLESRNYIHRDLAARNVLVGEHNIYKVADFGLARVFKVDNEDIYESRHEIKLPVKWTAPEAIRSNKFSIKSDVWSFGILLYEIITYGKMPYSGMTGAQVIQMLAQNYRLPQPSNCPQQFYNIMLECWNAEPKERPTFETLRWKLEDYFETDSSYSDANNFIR

SMILES	Kd
CN1CCC(CNc2ccc3ncc(-c4cccc(OC(F)(F)F)c4)n3n2)CC1 [SGI-1776]	> 30 µM (inactive)
CC(=O)Nc1cccc(-n2c(=O)n(C3CC3)c(=O)c3c(Nc4ccc(I)cc4F)n(C)c(=O)c(C)c32)c1 [TRAMETINIB]	> 30 µM (inactive)
CN1N=C(N)c2cn([C@@H]3O[C@H](COP(=O)(O)O)[C@@H](O)[C@H]3O)c3ncnc1c23 [TRICIRIBINE PHOSPHATE]	> 30 µM (inactive)

biological target: Dual specificity mitogen-activated protein kinase kinase 1 (Homo sapiens, UniProt Q02750)
Sequence (Q02750 whole entry): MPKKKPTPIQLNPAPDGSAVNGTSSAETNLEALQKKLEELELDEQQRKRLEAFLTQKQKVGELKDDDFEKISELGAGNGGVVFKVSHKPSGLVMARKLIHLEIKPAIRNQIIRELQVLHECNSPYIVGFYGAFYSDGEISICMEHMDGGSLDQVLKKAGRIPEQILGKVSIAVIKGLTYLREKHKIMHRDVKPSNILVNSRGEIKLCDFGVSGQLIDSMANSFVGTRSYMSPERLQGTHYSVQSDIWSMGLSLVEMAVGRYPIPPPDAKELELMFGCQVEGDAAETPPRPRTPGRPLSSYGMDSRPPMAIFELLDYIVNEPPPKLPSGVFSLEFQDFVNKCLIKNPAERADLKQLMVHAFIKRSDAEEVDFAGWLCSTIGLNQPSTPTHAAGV

SMILES	Kd
CN1CCC(CNc2ccc3ncc(-c4cccc(OC(F)(F)F)c4)n3n2)CC1 [SGI-1776]	> 30 µM (inactive)
COc1cc2nccc(Oc3ccc(NC(=O)Nc4cc(C)on4)c(Cl)c3)c2cc1OC [TIVOZANIB]	> 30 µM (inactive)
CN1N=C(N)c2cn([C@@H]3O[C@H](COP(=O)(O)O)[C@@H](O)[C@H]3O)c3ncnc1c23 [TRICIRIBINE PHOSPHATE]	> 30 µM (inactive)

biological target: Mitogen-activated protein kinase 9 (Homo sapiens, UniProt P45984)
Sequence (P45984 whole entry): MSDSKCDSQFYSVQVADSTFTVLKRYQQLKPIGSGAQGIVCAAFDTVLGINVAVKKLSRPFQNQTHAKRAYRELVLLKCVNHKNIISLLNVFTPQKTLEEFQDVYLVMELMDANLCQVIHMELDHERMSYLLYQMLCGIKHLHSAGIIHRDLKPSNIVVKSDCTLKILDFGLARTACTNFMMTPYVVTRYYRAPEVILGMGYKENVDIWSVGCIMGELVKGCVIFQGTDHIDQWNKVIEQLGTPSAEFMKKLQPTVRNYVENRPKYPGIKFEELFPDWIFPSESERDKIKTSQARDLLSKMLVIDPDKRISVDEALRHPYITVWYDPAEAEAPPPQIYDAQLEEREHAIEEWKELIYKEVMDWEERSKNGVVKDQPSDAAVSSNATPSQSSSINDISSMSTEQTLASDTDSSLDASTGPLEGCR

SMILES	Kd
CN1CCC(CNc2ccc3ncc(-c4cccc(OC(F)(F)F)c4)n3n2)CC1 [SGI-1776]	> 30 µM (inactive)
COc1cc2nccc(Oc3ccc(NC(=O)Nc4cc(C)on4)c(Cl)c3)c2cc1OC [TIVOZANIB]	> 30 µM (inactive)
CC(=O)Nc1cccc(-n2c(=O)n(C3CC3)c(=O)c3c(Nc4ccc(I)cc4F)n(C)c(=O)c(C)c32)c1 [TRAMETINIB]	> 30 µM (inactive)
CN1N=C(N)c2cn([C@@H]3O[C@H](COP(=O)(O)O)[C@@H](O)[C@H]3O)c3ncnc1c23 [TRICIRIBINE PHOSPHATE]	> 30 µM (inactive)

biological target: NADH dehydrogenase [ubiquinone] 1 alpha subcomplex subunit 13 (Homo sapiens, UniProt Q9P0J0)
Sequence (Q9P0J0 whole entry, one chain of several): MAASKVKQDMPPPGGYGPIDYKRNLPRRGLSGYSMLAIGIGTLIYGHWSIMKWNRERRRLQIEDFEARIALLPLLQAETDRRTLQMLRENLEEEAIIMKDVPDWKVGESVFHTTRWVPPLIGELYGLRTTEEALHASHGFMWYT

SMILES	Kd
CN1CCC(CNc2ccc3ncc(-c4cccc(OC(F)(F)F)c4)n3n2)CC1 [SGI-1776]	> 30 µM (inactive)
O=C(Nc1cccc(Cl)c1)Nc1ncc(CCNc2ncnc3ccsc23)s1 [SNS-314]	> 30 µM (inactive)
COc1cc2nccc(Oc3ccc(NC(=O)Nc4cc(C)on4)c(Cl)c3)c2cc1OC [TIVOZANIB]	> 30 µM (inactive)
CC(=O)Nc1cccc(-n2c(=O)n(C3CC3)c(=O)c3c(Nc4ccc(I)cc4F)n(C)c(=O)c(C)c32)c1 [TRAMETINIB]	> 30 µM (inactive)
CN1N=C(N)c2cn([C@@H]3O[C@H](COP(=O)(O)O)[C@@H](O)[C@H]3O)c3ncnc1c23 [TRICIRIBINE PHOSPHATE]	> 30 µM (inactive)

biological target: T2, Serine/threonine-protein kinase NLK (Homo sapiens, UniProt Q9UBE8)
T2 sequence (Q9UBE8 whole entry): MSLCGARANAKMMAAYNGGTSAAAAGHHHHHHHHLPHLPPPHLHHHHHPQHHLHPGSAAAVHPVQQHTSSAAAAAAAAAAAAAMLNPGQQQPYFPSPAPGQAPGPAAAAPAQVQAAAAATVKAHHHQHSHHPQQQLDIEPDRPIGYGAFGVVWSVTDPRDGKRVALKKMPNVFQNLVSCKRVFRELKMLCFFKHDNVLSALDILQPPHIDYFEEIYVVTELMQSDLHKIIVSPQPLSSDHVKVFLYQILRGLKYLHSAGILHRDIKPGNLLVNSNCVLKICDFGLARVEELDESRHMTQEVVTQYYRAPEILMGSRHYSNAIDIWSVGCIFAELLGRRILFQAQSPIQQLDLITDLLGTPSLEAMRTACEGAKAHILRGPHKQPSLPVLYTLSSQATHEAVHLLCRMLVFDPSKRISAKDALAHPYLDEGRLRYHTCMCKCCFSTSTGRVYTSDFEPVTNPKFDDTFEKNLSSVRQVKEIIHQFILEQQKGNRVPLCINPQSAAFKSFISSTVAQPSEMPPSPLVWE

SMILES	Kd
CN1CCC(CNc2ccc3ncc(-c4cccc(OC(F)(F)F)c4)n3n2)CC1 [SGI-1776]	> 30 µM (inactive)
COc1cc2nccc(Oc3ccc(NC(=O)Nc4cc(C)on4)c(Cl)c3)c2cc1OC [TIVOZANIB]	> 30 µM (inactive)
CC(=O)Nc1cccc(-n2c(=O)n(C3CC3)c(=O)c3c(Nc4ccc(I)cc4F)n(C)c(=O)c(C)c32)c1 [TRAMETINIB]	> 30 µM (inactive)

biological target: Serine/threonine-protein kinase N1 (Homo sapiens, UniProt Q16512)
Sequence (Q16512 whole entry): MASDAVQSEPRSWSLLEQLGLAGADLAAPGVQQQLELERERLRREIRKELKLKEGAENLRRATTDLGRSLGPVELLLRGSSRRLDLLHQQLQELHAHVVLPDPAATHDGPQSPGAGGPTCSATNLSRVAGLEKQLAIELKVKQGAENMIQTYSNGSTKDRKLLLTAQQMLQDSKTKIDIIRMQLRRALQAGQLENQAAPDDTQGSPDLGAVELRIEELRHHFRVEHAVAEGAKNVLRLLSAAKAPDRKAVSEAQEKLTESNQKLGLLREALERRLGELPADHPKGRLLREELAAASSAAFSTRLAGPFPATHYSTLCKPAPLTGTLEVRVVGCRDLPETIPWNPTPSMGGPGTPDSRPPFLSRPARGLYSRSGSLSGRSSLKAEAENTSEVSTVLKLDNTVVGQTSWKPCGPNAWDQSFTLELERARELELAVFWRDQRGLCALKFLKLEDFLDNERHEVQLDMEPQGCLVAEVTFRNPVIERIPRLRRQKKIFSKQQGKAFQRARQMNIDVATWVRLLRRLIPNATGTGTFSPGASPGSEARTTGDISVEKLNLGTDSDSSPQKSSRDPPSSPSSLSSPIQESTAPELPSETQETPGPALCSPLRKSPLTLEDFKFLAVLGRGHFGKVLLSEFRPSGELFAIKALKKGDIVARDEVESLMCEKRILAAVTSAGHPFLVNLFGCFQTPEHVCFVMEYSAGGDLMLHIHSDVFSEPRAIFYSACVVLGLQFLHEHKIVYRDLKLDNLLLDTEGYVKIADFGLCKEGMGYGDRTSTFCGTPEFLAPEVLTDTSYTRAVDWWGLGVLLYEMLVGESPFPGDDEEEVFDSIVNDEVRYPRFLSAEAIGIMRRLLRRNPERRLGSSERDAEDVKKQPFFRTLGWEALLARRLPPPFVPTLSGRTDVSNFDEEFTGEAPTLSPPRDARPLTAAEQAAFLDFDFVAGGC

SMILES	Kd
CN1CCC(CNc2ccc3ncc(-c4cccc(OC(F)(F)F)c4)n3n2)CC1 [SGI-1776]	35.4 µM (active)
O=C(Nc1cccc(Cl)c1)Nc1ncc(CCNc2ncnc3ccsc23)s1 [SNS-314]	> 30 µM (inactive)
COc1cc2nccc(Oc3ccc(NC(=O)Nc4cc(C)on4)c(Cl)c3)c2cc1OC [TIVOZANIB]	> 30 µM (inactive)
CC(=O)Nc1cccc(-n2c(=O)n(C3CC3)c(=O)c3c(Nc4ccc(I)cc4F)n(C)c(=O)c(C)c32)c1 [TRAMETINIB]	> 30 µM (inactive)
CN1N=C(N)c2cn([C@@H]3O[C@H](COP(=O)(O)O)[C@@H](O)[C@H]3O)c3ncnc1c23 [TRICIRIBINE PHOSPHATE]	> 30 µM (inactive)

biological target: T3, Septin-9 (Homo sapiens, UniProt Q9UHD8)
T3 sequence (Q9UHD8 whole entry): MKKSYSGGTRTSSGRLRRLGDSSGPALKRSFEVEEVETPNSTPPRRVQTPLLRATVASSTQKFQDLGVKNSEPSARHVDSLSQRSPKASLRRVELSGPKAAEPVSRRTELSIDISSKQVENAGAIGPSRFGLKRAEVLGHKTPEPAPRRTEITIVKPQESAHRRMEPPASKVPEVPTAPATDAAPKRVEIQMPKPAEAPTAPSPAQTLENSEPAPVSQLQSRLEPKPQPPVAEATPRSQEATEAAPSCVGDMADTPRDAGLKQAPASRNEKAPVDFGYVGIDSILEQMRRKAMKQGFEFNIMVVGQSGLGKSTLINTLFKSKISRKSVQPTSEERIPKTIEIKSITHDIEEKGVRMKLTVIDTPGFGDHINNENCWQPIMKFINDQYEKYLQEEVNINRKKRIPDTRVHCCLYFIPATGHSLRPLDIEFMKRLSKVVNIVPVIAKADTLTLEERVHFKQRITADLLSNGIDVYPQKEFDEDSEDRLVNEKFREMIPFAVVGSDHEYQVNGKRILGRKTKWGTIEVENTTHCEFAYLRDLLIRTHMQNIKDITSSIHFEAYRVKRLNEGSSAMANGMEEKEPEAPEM

SMILES	Kd
CN1CCC(CNc2ccc3ncc(-c4cccc(OC(F)(F)F)c4)n3n2)CC1 [SGI-1776]	> 30 µM (inactive)
O=C(Nc1cccc(Cl)c1)Nc1ncc(CCNc2ncnc3ccsc23)s1 [SNS-314]	> 30 µM (inactive)
COc1cc2nccc(Oc3ccc(NC(=O)Nc4cc(C)on4)c(Cl)c3)c2cc1OC [TIVOZANIB]	> 30 µM (inactive)
CC(=O)Nc1cccc(-n2c(=O)n(C3CC3)c(=O)c3c(Nc4ccc(I)cc4F)n(C)c(=O)c(C)c32)c1 [TRAMETINIB]	> 30 µM (inactive)
CN1N=C(N)c2cn([C@@H]3O[C@H](COP(=O)(O)O)[C@@H](O)[C@H]3O)c3ncnc1c23 [TRICIRIBINE PHOSPHATE]	> 30 µM (inactive)

biological target: Elongation factor Tu, mitochondrial (Homo sapiens, UniProt P49411)

SMILES	Kd
CN1CCC(CNc2ccc3ncc(-c4cccc(OC(F)(F)F)c4)n3n2)CC1 [SGI-1776]	> 30 µM (inactive)
O=C(Nc1cccc(Cl)c1)Nc1ncc(CCNc2ncnc3ccsc23)s1 [SNS-314]	> 30 µM (inactive)
COc1cc2nccc(Oc3ccc(NC(=O)Nc4cc(C)on4)c(Cl)c3)c2cc1OC [TIVOZANIB]	> 30 µM (inactive)
CC(=O)Nc1cccc(-n2c(=O)n(C3CC3)c(=O)c3c(Nc4ccc(I)cc4F)n(C)c(=O)c(C)c32)c1 [TRAMETINIB]	> 30 µM (inactive)
CN1N=C(N)c2cn([C@@H]3O[C@H](COP(=O)(O)O)[C@@H](O)[C@H]3O)c3ncnc1c23 [TRICIRIBINE PHOSPHATE]	> 30 µM (inactive)
